Consider 12 compounds from ChEMBL document CHEMBL1201862, “PubChem BioAssay data set” (2004).

Test systems include RXF 393; SK-MEL-2; NCI-H23; MDA-MB-231; COLO 205; A549; SN12C; KM12; MDA-MB-435; OVCAR-5; OVCAR-8; UACC-62; SF-268; M14; HOP-92; IGROV-1; UACC-257; HCT-15; CCRF-CEM.
Common to all, as to assay: NCI tumour cell line growth inhibition, 48 h

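Cultured in 96-well plates, cells were exposed to test compound for 48 hours across five concentrations. GI50: concentration for 50% inhibition of growth.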 The source made the active and inactive calls. Cut-off read from the data, not from the text of the source: active = GI50 up to about 1.1 µM and inactive = higher.

For the compound `CNC(=O)CCNC(=O)CCC(=O)OC`, the GI50 with RXF 393, in the experiment with SK-MEL-2, with NCI-H23, in the experiment on MDA-MB-231, in the experiment on COLO 205 and in the experiment on A549 was > 100 µM (inactive) each time. The GI50 in the experiment on SN12C, in the experiment on KM12, with MDA-MB-435, in the experiment with OVCAR-5, in the experiment on OVCAR-8 and in the experiment on UACC-62 was > 100 µM (inactive) throughout. The GI50 in the experiment on SF-268 and in the experiment with M14 was > 100 µM (inactive) each time.

On to `NNC(=O)C(=O)N/N=C1/CCCC1C(=O)CCC(=O)Nc1ccc(Cl)cc1` (centres undefined), for which the GI50 is > 100 µM (inactive) with RXF 393; 24.4 µM (inactive) with SK-MEL-2; > 100 µM (inactive) in the experiment on HOP-92; > 100 µM (inactive) in the experiment with IGROV-1; > 100 µM (inactive) in the experiment with NCI-H23; > 100 µM (inactive) with UACC-257. Besides, the GI50 in the experiment on COLO 205 was > 100 µM (inactive); in the experiment on HCT-15, 12.2 µM; with A549, > 100 µM (inactive); in the experiment with SN12C, > 100 µM (inactive); in the experiment on KM12, > 100 µM (inactive); in the experiment with OVCAR-5, > 100 µM (inactive). The GI50 with OVCAR-8 is > 100 µM (inactive); in the experiment on CCRF-CEM, > 100 µM (inactive); in the experiment on UACC-62 it was 2.49 µM (inactive); with SF-268 it was > 100 µM (inactive); in the experiment on M14, 52.2 µM (inactive).

On to `CC1(C)O[C@@H](CP(c2cccc3ccccc23)c2cccc3ccccc23)[C@H](CP(c2cccc3ccccc23)c2cccc3ccccc23)O1`, for which the GI50 in the experiment on RXF 393, in the experiment on SK-MEL-2, in the experiment with IGROV-1, in the experiment with NCI-H23, in the experiment with UACC-257 and in the experiment with MDA-MB-231 was > 100 µM (inactive) throughout. In addition, the GI50 with COLO 205 was > 100 µM (inactive); in the experiment on HCT-15 it was > 100 µM; in the experiment on A549, > 100 µM (inactive); in the experiment on SN12C it was > 100 µM (inactive); in the experiment with KM12 it was > 100 µM (inactive); in the experiment with MDA-MB-435 it was > 100 µM (inactive). In addition, the GI50 in the experiment with OVCAR-5, in the experiment on OVCAR-8, in the experiment with CCRF-CEM, with UACC-62, in the experiment on SF-268 and in the experiment with M14 was > 100 µM (inactive) in each case.

On to `COc1ccc(NC(=O)C2C(=O)N(c3ccc(OC)cc3)C(=O)/C2=N/O)cc1` (centres undefined), for which the GI50 in the experiment with RXF 393 is 15.3 µM (inactive); in the experiment with SK-MEL-2, 32.2 µM (inactive); in the experiment on HOP-92 it was 16.1 µM (inactive); with IGROV-1, 40.1 µM (inactive); in the experiment on NCI-H23, 43.4 µM (inactive); with UACC-257, 41.6 µM (inactive). Further, the GI50 was > 100 µM (inactive) in the experiment with COLO 205; > 100 µM in the experiment on HCT-15; 33.9 µM (inactive) with A549; 26.4 µM (inactive) in the experiment on SN12C; 23 µM (inactive) in the experiment with KM12; > 100 µM (inactive) in the experiment with OVCAR-5. Moreover, the GI50 with OVCAR-8 was 18 µM (inactive); in the experiment with CCRF-CEM it was > 100 µM (inactive); with UACC-62, 21.8 µM (inactive); with SF-268, 24.8 µM (inactive); in the experiment with M14, 34 µM (inactive).

As for `Clc1ccc(Nc2nnc(CNc3ccc(-c4nnc(Nc5ccc(Cl)cc5)s4)cc3)s2)cc1`, the GI50 with RXF 393 is 35.8 µM (inactive); in the experiment with SK-MEL-2, 11.7 µM (inactive); with HOP-92, 74.6 µM (inactive); in the experiment with IGROV-1, 41.2 µM (inactive); with NCI-H23, 39.3 µM (inactive); with UACC-257 it was 34 µM (inactive). For the same compound, the GI50 was 25.8 µM (inactive) in the experiment with MDA-MB-231; 20.2 µM (inactive) in the experiment on COLO 205; 25.1 µM in the experiment with HCT-15; 16.1 µM (inactive) in the experiment on A549; 47.8 µM (inactive) with SN12C; 11 µM (inactive) with KM12. The GI50 was 28.1 µM (inactive) in the experiment on MDA-MB-435; 23.6 µM (inactive) with OVCAR-5; 21.2 µM (inactive) in the experiment on UACC-62; 26.9 µM (inactive) in the experiment on SF-268; 22.8 µM (inactive) in the experiment on M14.

`O=CCC1CCCCC1`: the GI50 in the experiment with RXF 393, in the experiment on SK-MEL-2, in the experiment with HOP-92, in the experiment with IGROV-1, in the experiment with NCI-H23 and in the experiment on UACC-257 was > 100 µM (inactive) throughout. Also, the GI50 in the experiment with MDA-MB-231 was > 100 µM (inactive); in the experiment with COLO 205, > 100 µM (inactive); in the experiment with HCT-15, > 100 µM; in the experiment on A549, > 100 µM (inactive); in the experiment on SN12C it was > 100 µM (inactive); in the experiment on KM12, 88.7 µM (inactive). The GI50 with MDA-MB-435, in the experiment with OVCAR-5, with SF-268 and in the experiment with M14 was > 100 µM (inactive) in each case.

Consider `CN(C)CCNC(=O)c1cccc2c1nc(-c1ccc(F)cc1)c1ccccc12`, for which the GI50 in the experiment with RXF 393 is 3.2 µM (inactive); with SK-MEL-2, 10.3 µM (inactive); with HOP-92, 2.45 µM (inactive); with IGROV-1 it was 2.84 µM (inactive); in the experiment with NCI-H23, 5.71 µM (inactive); in the experiment with UACC-257 it was 2.95 µM (inactive). For the same compound, the GI50 in the experiment with COLO 205 was 3.21 µM (inactive); in the experiment with HCT-15, 2.67 µM; in the experiment on A549, 0.935 µM (active); in the experiment on SN12C, 2.77 µM (inactive); in the experiment with KM12 it was 5.93 µM (inactive); in the experiment on OVCAR-5, 3.63 µM (inactive). For the same compound, the GI50 in the experiment on OVCAR-8 is 4.33 µM (inactive); in the experiment on CCRF-CEM, 1.97 µM (inactive); with UACC-62, 3.09 µM (inactive); in the experiment on SF-268 it was 6.58 µM (inactive); with M14, 5.81 µM (inactive).

Regarding `CC(=O)/C(=N\O)C(=O)NCc1ccccc1`, the GI50 with RXF 393, in the experiment on SK-MEL-2, in the experiment with HOP-92, with IGROV-1, in the experiment with NCI-H23 and in the experiment on UACC-257 was > 100 µM (inactive) each time. The GI50 with COLO 205 was 58.9 µM (inactive); in the experiment with HCT-15 it was 35.9 µM; in the experiment with A549, > 100 µM (inactive); with SN12C, > 100 µM (inactive); in the experiment on KM12 it was > 100 µM (inactive); in the experiment on OVCAR-5, > 100 µM (inactive). For the same compound, the GI50 in the experiment on OVCAR-8, in the experiment on CCRF-CEM, in the experiment with UACC-62 and in the experiment with SF-268 was > 100 µM (inactive) each time.

As to `COC(=O)C1Cc2c([nH]c3ccccc23)[C@H](CC(C)C)N1` (some centres undefined), the GI50 in the experiment on RXF 393, with SK-MEL-2, in the experiment on HOP-92, in the experiment with IGROV-1, in the experiment with NCI-H23 and in the experiment with UACC-257 was > 100 µM (inactive) throughout. For the same compound, the GI50 in the experiment with COLO 205, in the experiment on A549, with SN12C, in the experiment with KM12, in the experiment with OVCAR-5 and in the experiment on OVCAR-8 was > 100 µM (inactive) in each case. Besides, the GI50 with CCRF-CEM, with UACC-62, with SF-268 and in the experiment with M14 was > 100 µM (inactive) in each case.

Take `O=C(CN1CCN(c2ccccc2)CC1)N1CCc2c([nH]c3ccccc23)C1c1cccnc1` (centres undefined): the GI50 was 9.68 µM (inactive) in the experiment on RXF 393; > 100 µM (inactive) in the experiment on SK-MEL-2; 20.2 µM (inactive) with HOP-92; > 100 µM (inactive) in the experiment on IGROV-1; 30.5 µM (inactive) in the experiment with NCI-H23; > 100 µM (inactive) in the experiment on UACC-257. For the same compound, the GI50 in the experiment on COLO 205 is > 100 µM (inactive); in the experiment with HCT-15, 57.3 µM; in the experiment on A549, 31.6 µM (inactive); in the experiment with SN12C, > 82.6 µM (inactive); in the experiment with KM12, 97.3 µM (inactive); in the experiment with OVCAR-5, > 100 µM (inactive). Besides, the GI50 with OVCAR-8 was 24.4 µM (inactive); in the experiment with CCRF-CEM it was > 100 µM (inactive); with UACC-62, 88.7 µM (inactive); in the experiment with SF-268, 39.1 µM (inactive); in the experiment on M14, 54.2 µM (inactive).

`Cc1ccc(S(=O)(=O)Nn2c(S)c(C#N)c(-c3ccc(N(C)C)cc3)c(C#N)c2=O)cc1`: the GI50 is 19.3 µM (inactive) in the experiment with RXF 393; 29.6 µM (inactive) in the experiment on HOP-92; 10.8 µM (inactive) in the experiment with IGROV-1; 19.1 µM (inactive) in the experiment with NCI-H23; 51.4 µM (inactive) in the experiment on UACC-257; > 100 µM (inactive) with MDA-MB-231. Further, the GI50 is 22 µM (inactive) in the experiment on COLO 205; 20.3 µM in the experiment on HCT-15; 40.5 µM (inactive) in the experiment on A549; 26.4 µM (inactive) in the experiment on SN12C; 24.6 µM (inactive) with KM12; 19.6 µM (inactive) in the experiment on MDA-MB-435. The GI50 in the experiment on OVCAR-5 was 35 µM (inactive); with OVCAR-8, 15.9 µM (inactive); with CCRF-CEM it was 5.57 µM (inactive); with UACC-62 it was 25.7 µM (inactive); with M14, 31.2 µM (inactive).

In the case of `OC1[C@H]([C@H]2CCCC[C@@H]2O)CCC[C@@H]1[C@@H]1CCCC[C@H]1O` (some centres undefined), the GI50 in the experiment on RXF 393, in the experiment on SK-MEL-2, in the experiment with HOP-92, with IGROV-1, in the experiment with NCI-H23 and in the experiment with UACC-257 was > 100 µM (inactive) each time. For the same compound, the GI50 in the experiment on COLO 205 is > 100 µM (inactive); in the experiment with HCT-15 it was > 100 µM; in the experiment on A549, > 100 µM (inactive); in the experiment on SN12C, > 100 µM (inactive); in the experiment on KM12 it was > 100 µM (inactive); in the experiment on OVCAR-5, > 100 µM (inactive). The GI50 in the experiment on OVCAR-8, in the experiment with CCRF-CEM, with UACC-62, in the experiment on SF-268 and in the experiment on M14 was > 100 µM (inactive) in each case.
